These results are taken from US9353051B2, “Antiviral drugs for treatment or prevention of dengue infection” (Siga Technologies Inc., priority 2007, dated 2016).

In one data set the test system is Den-3. The data set can be described thus: viral yield assay against Den-3. Type of data set: cell-based. The conditions noted are these: Dengue virus.
For data set [1], the system named is dengue-2 in C6/36 mosquito cells. The data set can be described thus: viral yield assay against dengue-2 in C6/36 mosquito cells. Type of data set: cell-based. The conditions noted are these: Dengue virus, dengue-2, C6/36 mosquito cells, read-out: Specificity C6/36. As for the experimental part: (§1) Select compounds were also tested for more broad spectrum activity against other members of the Flaviviridae family including Modoc, which is a murine flavivirus, as well as Bovine Viral Diarrhea Virus (BVDV), which is a Pestivirus. Since dengue virus is able to replicate in multiple cell lines and to ensure that the activity seen in vero cells is consistent, select compounds were also tested for their effective concentration in a viral yield assay against dengue-2 in C6/36 mosquito cells.

The next data set deals with Modoc. The data set can be described thus: specificity: activity against Modoc. Type of data set: cell-based, murine flavivirus. The conditions noted are these: Orthoflavivirus, in Mus musculus. As for the experimental part:
as §1

A further data set deals with Den-1. The data set can be described thus: viral yield assay against Den-1. It counts as cell-based. Particulars: Dengue virus.
Data set [2] deals with Dengue-2 (Strain New Guinea C). The data set can be described thus: viral yield assay against Dengue-2 in Vero cells. It counts as cell-based. The conditions noted are these: Dengue virus; for EC90: read-out: EC90 Yield Den-2. In outline: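 Vero cells infected with dengue-2 at MOI 0.1 were treated with compound (DMSO control) at 37° C., harvested 48 h post infection and titered on Vero cells.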

The next data set has as its system Den-4. The data set can be described thus: viral yield assay against Den-4. The conditions noted are these: Dengue virus. Type of data set: cell-based.
The subject of data set [3] is Bovine Viral Diarrhea Virus (BVDV). The data set can be described thus: specificity: activity against BVDV. Type of data set: cell-based. The protocol:
as §1

The subject of data set [4] is dengue. The conditions noted are these: cited from earlier work.
Data set [5] concerns dengue. Particulars: mouse model; cited from earlier work.
Setting [6] is: Vero cells, MOI 0.1, harvested 48 hours post infection, read-out: Activity (anti-dengue 2 viral activity, EC50).
[7] abbreviates: viral yield assay, Vero cells, read-out: EC50 Yield Den-2.
Setting [8] is: Bovine viral diarrhea virus isolates and strains, read-out: Specificity BVDV.

pEC50: −log10 of the molar value. Read-outs that look alike come from different tables or passages of the source.

What is called EC90 is the concentration needed for an effect of 90%. As for `CCN(CC)S(=O)(=O)c1ccc(NC(=O)Cn2cnc3ccccc3c2=O)cc1` [Compound 1, N-(4-Diethylsulfamoyl-phenyl)-2-(4-oxo-4H-quinazolin-3-yl)-acetamide], the pEC50 was 6.00 with Den-3; 6.52 in data set [1]; 5.92 in the data set on Modoc; 5.37 in the data set on Den-1; more than 6.00 in data set [2] (setting [6]); 6.52 in data set [2] (setting [7]). The pEC50 in the data set with Den-4 is 5.77; in data set [3] (setting [8]) it was less than 4.30. The EC90 is 8.2 µM with Den-3; 10.7 µM in the data set on Den-1; 5.2 µM in data set [2] (viral yield assay, Vero cells); 4.1 µM in the data set on Den-4.
Take `CCN(CC)S(=O)(=O)c1ccc(OC)c(NC(=O)C(C)C)c1` [Compound 2, N-(5-Diethylsulfamoyl-2-methoxy-phenyl)-isobutyramide]: the pEC50 in the data set with Den-3 was 5.26; in data set [1] it was 6.15; in the data set on Modoc, 5.21; with Den-1 it was 5.12; in data set [2] (setting [6]), more than 6.00; in [2] (setting [7]), 6.52. For the same molecule, the pEC50 is 5.68 in the data set with Den-4 and less than 4.30 in [3] (setting [8]). For the same molecule, the EC90 was 13.3 µM with Den-3; 8.9 µM in the data set on Den-1; 4.1 µM in data set [2] (viral yield assay, Vero cells); 12.5 µM with Den-4.
Turning to `CCN(CC)S(=O)(=O)c1ccc(C)c(NC(=O)Cn2cnc3cc([N+](=O)[O-])ccc3c2=O)c1` [Compound 12, N-(5-Diethylsulfamoyl-2-methyl-phenyl)-2-(7-nitro-4-oxo-4H-quinazolin-3-yl)-acetamide], the pEC50 in the data set on Den-3 was 5.54; with Modoc, less than 4.60; in the data set with Den-1, less than 4.60; in [2] (Vero, 48 h, read-out: Activity (anti-dengue 2 viral activity, EC50)), 5.00 to 6.00; in data set [2] (setting [7]), 4.95; in the data set with Den-4, 5.28. Also, the pEC50 in [3] (setting [8]) is less than 4.30. Further, the EC90 was more than 25 µM with Den-3; more than 25 µM in the data set on Den-1; more than 25 µM in data set [2] (viral yield assay, Vero cells); 14.6 µM in the data set with Den-4.
As for `CCN(CC)S(=O)(=O)c1ccc(OC)c(NC(=O)Cn2cnc3c2c(=O)n(C)c(=O)n3C)c1` [Compound 13, N-(5-Diethylsulfamoyl-2-methoxy-phenyl)-2-(1,3-dimethyl-2,6-dioxo-1,2,3,6-tetrahydro-purin-7-yl)-acetamide], the pEC50 in the data set with Den-3 is 5.39; in [1], 5.68; with Modoc, less than 4.60; in the data set on Den-1 it was 5.15; in [2] (setting [6]), 5.00 to 6.00; in [2] (setting [7]), 5.62. The pEC50 in the data set with Den-4 was 5.72; in data set [3] (setting [8]), 4.32. Further, the EC90 with Den-3 is 9.4 µM; in the data set on Den-1 it was 8.5 µM; in data set [2] (viral yield assay, Vero cells), 10.3 µM; with Den-4 it was 9.2 µM.
`CCCC(=O)Nc1cc(S(=O)(=O)N(CC)CC)ccc1OC` [Compound 14, N-(5-Diethylsulfamoyl-2-methoxy-phenyl)-butyramide]: the pEC50 in the data set on Den-3 was 5.38; with Modoc it was less than 4.60; with Den-1, less than 4.60; in data set [2] (setting [6]), 5.00 to 6.00; in data set [2] (setting [7]) it was 5.44; with Den-4, 5.32. Besides, the pEC50 in [3] (Bovine viral diarrhea virus isolates and strains; read-out: Specificity BVDV) is less than 4.30. The EC90 in the data set with Den-3 is 14.9 µM; in the data set with Den-1, more than 25 µM; in data set [2] (viral yield assay, Vero cells), 27.5 µM; in the data set with Den-4, 11.1 µM.
Turning to `NC(=O)c1ncn([C@@H]2O[C@H](CO)[C@@H](O)[C@H]2O)n1` [ribavirin], in the data set on dengue [4] (animal models of dengue (mouse or rhesus monkey, not specified)), the adverse effects induced entry is “induced anemia and thrombocytosis”. The protection against dengue entry with dengue [4] (rhesus monkey model) and in the data set with dengue [5] was “did not show protection” each time.
